The record followed here is ChEMBL document CHEMBL3785085, “Pharmacokinetics of single and multiple doses of phenytoin in man” (Eur J Clin Pharmacol, 1974).

Data set [1] in a line: Drug uptake in healthy human volunteer (5 volunteers) at 5 mg/kg, iv administered as single dose through infusion after 0.5 hrs by gas chromatographic method. The conditions noted are these: in vivo, read-out: Drug uptake. The class given is ADME, organism-based.
The test system of the next data set is Plasma. As to the kind of experiment: Plasma concentration at steady state in healthy human volunteer (5 volunteers) at 2 mg/kg, po bid administered for 12 days by gas chromatographic method. As to conditions: in vivo, 288 h. The class given is ADME, organism-based.
Data set [2] in a line: Half life at post steady state in healthy human volunteer (5 volunteers) at 2 mg/kg, po bid administered for 12 days by gas chromatographic method. The class given is ADME, organism-based. The conditions noted are these: in vivo.
Data set [3] in a line: Cmax in healthy human volunteer (5 volunteers) at 5 mg/kg, po administered as single dose by gas chromatographic method. The class given is ADME, organism-based. Set-up: dose 5 mg/kg, route oral. The conditions noted are these: in vivo.
Data set [4] in a line: Half life in healthy human volunteer (5 volunteers) at 5 mg/kg, iv administered as single dose through infusion by gas chromatographic method. The class given is ADME, organism-based. As to conditions: in vivo.
Data set [5] in a line: Total plasma clearance in healthy human volunteer (5 volunteers) at 5 mg/kg, iv administered as single dose by gas chromatographic method. The class given is ADME, organism-based.
A short description of data set [6]: Half life in healthy human volunteer (5 volunteers) at 5 mg/kg, po administered as single dose by gas chromatographic method. The class given is ADME, organism-based. As to conditions: in vivo.
Data set [7] can be described thus: Half life during steady state in healthy human volunteer (5 volunteers) at 2 mg/kg, po bid administered for 12 days by gas chromatographic method. It counts as ADME, organism-based. The conditions noted are these: in vivo.
A further data set deals with Homo sapiens. As to the kind of experiment: Anticonvulsant activity in po dose patient assessed as compound level in plasma required to decrease epileptic seizure. The class given is functional.
Data set [8] is described as follows: Apparent volume of distribution (area) in healthy human volunteer (5 volunteers) at 5 mg/kg, iv administered as single dose through infusion by gas chromatographic method. The class given is ADME, organism-based. As to conditions: in vivo, read-out: Vd(app).

As for `O=C1N=C([O-])NC1(c1ccccc1)c1ccccc1.[Na+]` [PHENYTOIN SODIUM], the concentration at 0.5 h in data set [1] turned out to be 8.4 µg/mL. Besides, the Cpss in the data set on Plasma is 5.3 µg/mL. In addition, the half-life in data set [2] was 15.9 h; in data set [4], 14.5 h; in data set [6], 16.6 h; in [7], 21.3 h. In [3], this molecule had a Cmax of 2.6 µg/mL. The same molecule showed a clearance in data set [5] of 0.022 L/h/kg. Moreover, the MEC in the data set on Homo sapiens came out at 10 µg/mL. Also, the Vd in data set [8] came out at 0.52 L/kg.

In general, half-life refers to the time needed for the level to fall by half in the phase considered. Low readings indicate rapid decline, high ones slow decline. In general, Cmax refers to the maximum level reached in the sampled fluid or tissue. By clearance is commonly meant the volume of plasma or blood freed of the substance per unit of time.
